Experiment [1] concerns the target Serine/threonine-protein kinase Chk2 (Homo sapiens, UniProt O96017).
Experiment [2] addresses Casein kinase I isoform gamma-2 (Homo sapiens) (UniProt P78368).
Experiment [3] addresses Casein kinase I isoform gamma-3 (Homo sapiens) (UniProt Q9Y6M4).
Experiment [4] concerns the target Dual specificity mitogen-activated protein kinase kinase 2 (Homo sapiens, UniProt P36507).
For experiment [5], the target named is T1, Mitogen-activated protein kinase kinase kinase 5 (Homo sapiens) (UniProt Q99683).
T1 sequence (whole entry): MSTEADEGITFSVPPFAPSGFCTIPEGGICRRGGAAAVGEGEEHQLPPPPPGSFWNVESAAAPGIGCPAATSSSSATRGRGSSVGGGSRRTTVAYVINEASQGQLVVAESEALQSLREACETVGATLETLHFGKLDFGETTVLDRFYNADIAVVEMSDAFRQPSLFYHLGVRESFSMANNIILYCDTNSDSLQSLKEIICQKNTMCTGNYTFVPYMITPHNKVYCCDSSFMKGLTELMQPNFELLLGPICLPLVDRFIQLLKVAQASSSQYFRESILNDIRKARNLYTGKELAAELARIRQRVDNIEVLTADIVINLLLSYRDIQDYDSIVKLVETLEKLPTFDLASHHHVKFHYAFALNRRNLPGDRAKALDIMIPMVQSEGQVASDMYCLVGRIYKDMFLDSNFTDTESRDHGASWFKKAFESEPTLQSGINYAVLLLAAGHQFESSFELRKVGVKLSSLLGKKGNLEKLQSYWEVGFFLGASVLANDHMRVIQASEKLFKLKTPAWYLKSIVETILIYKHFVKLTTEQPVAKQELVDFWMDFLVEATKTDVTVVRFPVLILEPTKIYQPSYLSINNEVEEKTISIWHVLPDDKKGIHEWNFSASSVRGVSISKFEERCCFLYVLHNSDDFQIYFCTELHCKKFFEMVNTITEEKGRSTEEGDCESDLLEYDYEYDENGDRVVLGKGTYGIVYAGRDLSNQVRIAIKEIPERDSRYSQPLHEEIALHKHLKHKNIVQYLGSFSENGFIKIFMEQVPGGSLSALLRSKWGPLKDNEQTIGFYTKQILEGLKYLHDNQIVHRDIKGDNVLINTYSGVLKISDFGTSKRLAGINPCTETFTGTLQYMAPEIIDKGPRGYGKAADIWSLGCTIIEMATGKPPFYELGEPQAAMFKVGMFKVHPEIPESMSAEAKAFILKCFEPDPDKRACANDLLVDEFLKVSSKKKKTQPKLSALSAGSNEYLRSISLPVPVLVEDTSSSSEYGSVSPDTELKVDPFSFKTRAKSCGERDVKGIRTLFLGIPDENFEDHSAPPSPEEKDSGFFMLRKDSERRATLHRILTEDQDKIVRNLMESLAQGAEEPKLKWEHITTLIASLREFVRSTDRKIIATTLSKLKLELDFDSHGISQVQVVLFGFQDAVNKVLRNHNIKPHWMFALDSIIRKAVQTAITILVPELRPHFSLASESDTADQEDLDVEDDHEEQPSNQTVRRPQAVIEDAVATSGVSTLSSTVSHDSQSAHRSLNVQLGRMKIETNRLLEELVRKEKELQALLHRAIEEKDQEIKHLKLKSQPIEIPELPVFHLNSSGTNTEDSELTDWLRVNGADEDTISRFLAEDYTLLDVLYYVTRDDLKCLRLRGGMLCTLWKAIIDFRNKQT

Experiment [6] addresses Serine/threonine-protein kinase Nek6 (Homo sapiens) (UniProt Q9HC98).
The target of experiment [7] is T2, 3-phosphoinositide-dependent protein kinase 1 (Homo sapiens) (UniProt O15530).
T2 sequence (whole entry): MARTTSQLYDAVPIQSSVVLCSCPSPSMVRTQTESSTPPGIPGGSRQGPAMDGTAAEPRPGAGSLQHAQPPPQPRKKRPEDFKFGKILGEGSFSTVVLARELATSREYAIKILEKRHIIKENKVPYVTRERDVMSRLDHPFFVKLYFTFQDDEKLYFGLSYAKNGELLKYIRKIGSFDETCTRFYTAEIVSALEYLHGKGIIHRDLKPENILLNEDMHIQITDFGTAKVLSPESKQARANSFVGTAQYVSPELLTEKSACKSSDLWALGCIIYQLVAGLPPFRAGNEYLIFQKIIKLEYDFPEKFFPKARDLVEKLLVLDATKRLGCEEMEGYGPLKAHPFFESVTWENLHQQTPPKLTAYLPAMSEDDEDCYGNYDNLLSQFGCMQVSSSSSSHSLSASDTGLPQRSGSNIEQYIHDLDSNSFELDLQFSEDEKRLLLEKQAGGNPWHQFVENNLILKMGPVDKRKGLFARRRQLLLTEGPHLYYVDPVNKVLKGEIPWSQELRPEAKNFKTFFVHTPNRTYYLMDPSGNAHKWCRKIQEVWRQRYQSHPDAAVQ

Experiment [8] has as its target Ribosomal protein S6 kinase alpha-3 (Homo sapiens) (UniProt P51812).
Experiment [9] concerns the target T3, Serine/threonine-protein kinase 4 (Homo sapiens) (UniProt Q13043).
T3 sequence (whole entry): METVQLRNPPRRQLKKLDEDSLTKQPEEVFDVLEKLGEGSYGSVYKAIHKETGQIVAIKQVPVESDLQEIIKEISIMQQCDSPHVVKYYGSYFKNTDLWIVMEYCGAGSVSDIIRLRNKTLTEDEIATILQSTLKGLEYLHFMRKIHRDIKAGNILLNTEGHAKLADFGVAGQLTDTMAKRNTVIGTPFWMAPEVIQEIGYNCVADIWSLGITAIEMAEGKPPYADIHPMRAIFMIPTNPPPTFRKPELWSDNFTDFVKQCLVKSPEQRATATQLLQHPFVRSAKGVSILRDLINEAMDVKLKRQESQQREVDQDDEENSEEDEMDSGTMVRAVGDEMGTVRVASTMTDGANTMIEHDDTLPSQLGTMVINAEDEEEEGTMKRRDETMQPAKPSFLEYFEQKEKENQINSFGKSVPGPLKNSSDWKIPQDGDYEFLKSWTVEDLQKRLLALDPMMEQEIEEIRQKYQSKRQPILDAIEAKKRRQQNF

Serine/threonine-protein kinase Nek6 (Homo sapiens), sequence (Q9HC98 whole entry): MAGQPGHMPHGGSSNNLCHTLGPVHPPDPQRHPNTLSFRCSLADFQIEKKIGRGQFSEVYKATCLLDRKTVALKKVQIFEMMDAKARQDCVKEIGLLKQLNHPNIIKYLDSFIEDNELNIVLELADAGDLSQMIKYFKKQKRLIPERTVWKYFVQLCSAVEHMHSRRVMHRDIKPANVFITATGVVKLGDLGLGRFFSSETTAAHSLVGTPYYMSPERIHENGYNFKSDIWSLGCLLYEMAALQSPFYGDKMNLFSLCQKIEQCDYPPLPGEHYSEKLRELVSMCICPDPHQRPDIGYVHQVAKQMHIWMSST
Serine/threonine-protein kinase Chk2, sequence (O96017 whole entry, canonical isoform): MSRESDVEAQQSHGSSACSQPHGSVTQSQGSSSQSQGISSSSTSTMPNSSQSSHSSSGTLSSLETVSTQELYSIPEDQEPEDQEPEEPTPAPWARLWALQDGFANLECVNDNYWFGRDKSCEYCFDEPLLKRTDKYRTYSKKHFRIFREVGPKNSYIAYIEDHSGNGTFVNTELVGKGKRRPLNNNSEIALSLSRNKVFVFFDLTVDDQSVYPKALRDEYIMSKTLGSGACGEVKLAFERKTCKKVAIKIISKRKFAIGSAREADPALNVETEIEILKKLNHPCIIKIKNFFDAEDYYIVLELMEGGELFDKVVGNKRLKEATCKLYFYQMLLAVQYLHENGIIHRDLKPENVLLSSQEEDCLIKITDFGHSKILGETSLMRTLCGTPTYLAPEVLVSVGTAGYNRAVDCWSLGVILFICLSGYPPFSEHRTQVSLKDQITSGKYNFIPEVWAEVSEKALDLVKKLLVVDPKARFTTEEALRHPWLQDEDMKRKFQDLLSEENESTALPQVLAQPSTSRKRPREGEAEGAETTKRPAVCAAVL
Dual specificity mitogen-activated protein kinase kinase 2, sequence (P36507 whole entry): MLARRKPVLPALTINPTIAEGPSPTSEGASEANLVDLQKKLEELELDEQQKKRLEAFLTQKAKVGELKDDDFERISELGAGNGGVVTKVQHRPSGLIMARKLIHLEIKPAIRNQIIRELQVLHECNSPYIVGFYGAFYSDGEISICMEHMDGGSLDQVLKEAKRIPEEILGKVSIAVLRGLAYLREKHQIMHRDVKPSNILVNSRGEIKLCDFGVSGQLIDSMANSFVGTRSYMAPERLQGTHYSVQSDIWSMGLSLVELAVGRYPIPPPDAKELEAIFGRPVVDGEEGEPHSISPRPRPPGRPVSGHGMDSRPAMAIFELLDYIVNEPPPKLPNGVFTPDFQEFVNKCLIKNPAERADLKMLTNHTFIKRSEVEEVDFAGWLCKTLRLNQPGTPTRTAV
Casein kinase I isoform gamma-3 (Homo sapiens), sequence (Q9Y6M4 whole entry, looked up, canonical isoform): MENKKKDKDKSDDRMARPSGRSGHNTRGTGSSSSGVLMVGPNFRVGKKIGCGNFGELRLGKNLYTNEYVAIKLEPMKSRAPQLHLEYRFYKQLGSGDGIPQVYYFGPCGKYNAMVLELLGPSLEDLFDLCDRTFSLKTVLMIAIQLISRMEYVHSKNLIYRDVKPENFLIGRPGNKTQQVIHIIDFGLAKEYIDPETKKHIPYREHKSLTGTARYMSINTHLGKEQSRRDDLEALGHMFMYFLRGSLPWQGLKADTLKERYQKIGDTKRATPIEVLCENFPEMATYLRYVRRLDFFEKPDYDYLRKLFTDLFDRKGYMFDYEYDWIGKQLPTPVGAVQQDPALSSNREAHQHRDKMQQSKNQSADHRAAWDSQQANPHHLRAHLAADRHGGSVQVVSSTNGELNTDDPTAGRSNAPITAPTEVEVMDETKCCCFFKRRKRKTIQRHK
Casein kinase I isoform gamma-2 (Homo sapiens), sequence (P78368 whole entry, looked up, canonical isoform): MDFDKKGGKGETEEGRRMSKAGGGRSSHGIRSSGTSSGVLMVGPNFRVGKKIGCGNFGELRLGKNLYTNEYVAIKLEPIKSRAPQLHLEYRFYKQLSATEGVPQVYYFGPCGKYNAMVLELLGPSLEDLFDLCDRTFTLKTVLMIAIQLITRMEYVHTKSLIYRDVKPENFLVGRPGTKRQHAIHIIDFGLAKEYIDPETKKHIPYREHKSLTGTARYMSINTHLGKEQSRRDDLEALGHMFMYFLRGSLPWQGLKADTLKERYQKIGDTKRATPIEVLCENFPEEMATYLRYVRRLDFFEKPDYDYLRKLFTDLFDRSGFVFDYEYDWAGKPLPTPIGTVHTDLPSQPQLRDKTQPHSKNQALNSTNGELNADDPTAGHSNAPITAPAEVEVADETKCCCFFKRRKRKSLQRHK
Ribosomal protein S6 kinase alpha-3 (Homo sapiens), sequence (P51812 whole entry): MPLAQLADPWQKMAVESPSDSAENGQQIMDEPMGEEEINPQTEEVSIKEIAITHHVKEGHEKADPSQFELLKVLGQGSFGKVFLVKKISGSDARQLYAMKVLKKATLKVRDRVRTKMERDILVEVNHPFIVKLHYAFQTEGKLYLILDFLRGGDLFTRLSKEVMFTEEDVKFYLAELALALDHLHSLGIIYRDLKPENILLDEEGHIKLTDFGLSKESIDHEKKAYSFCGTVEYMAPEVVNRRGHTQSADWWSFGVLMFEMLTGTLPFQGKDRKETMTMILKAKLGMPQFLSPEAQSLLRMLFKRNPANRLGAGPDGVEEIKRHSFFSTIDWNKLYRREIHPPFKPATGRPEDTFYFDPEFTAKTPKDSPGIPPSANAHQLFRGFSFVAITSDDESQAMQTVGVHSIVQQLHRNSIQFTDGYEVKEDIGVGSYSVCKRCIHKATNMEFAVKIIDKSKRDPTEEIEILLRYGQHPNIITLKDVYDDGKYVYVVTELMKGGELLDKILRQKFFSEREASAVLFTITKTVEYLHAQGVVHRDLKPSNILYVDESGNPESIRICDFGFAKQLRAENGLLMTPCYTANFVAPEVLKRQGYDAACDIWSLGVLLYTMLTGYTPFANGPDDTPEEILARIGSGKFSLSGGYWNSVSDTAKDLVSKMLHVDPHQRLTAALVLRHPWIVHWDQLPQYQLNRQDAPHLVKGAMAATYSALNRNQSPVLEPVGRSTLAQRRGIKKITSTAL

Turning to `O=C1NC(=O)C(c2c[nH]c3ccccc23)=C1c1c[nH]c2ccccc12`, the ΔTm – broadly, the change in melting temperature against a reference sample – in experiment [1] was 2.6 °C; in [2] it was 0.7 °C; in experiment [3], 0.7 °C; in experiment [4], 2.8 °C; in experiment [5], 0.2 °C; in experiment [6], -0.2 °C. In addition, the ΔTm came to 0 °C in experiment [7], 1 °C in [8] and 4.1 °C in [9].

For the compound `O=[N+]([O-])c1ccc(-c2nc(-c3ccc(F)cc3)c(-c3ccncc3)[nH]2)cc1`, the ΔTm was -0.4 °C in experiment [1]; 1.7 °C in experiment [2]; 2.6 °C in experiment [3]; 0.3 °C in experiment [4]; -0.3 °C in [5]; 0.9 °C in experiment [6]. Moreover, the ΔTm is -0.1 °C in [7], 0.7 °C in [8] and 1.4 °C in experiment [9].

`CC(C)(C)c1cc(C=C2C(=O)C=CC2=O)cc(C(C)(C)C)c1O`: the ΔTm in experiment [1] is 1.8 °C; in experiment [2], 0.5 °C; in [3], 0.2 °C; in experiment [4], -1.2 °C; in experiment [5], 0.1 °C; in [6], 0.2 °C. In addition, the ΔTm in [7] is -0.1 °C; in experiment [8] it was -5 °C; in [9] it was 1.2 °C.

In the case of `O=C1Nc2cc(Br)ccc2/C1=C1/Nc2ccccc2/C1=N\O`, the ΔTm was 2.3 °C in [1]; 0.3 °C in experiment [2]; -1.1 °C in experiment [3]; 3.1 °C in experiment [4]; -1 °C in experiment [5]; -0.4 °C in experiment [6]. Also, the ΔTm in experiment [7] is -0.6 °C; in [8] it was 4.6 °C; in experiment [9] it was 4.4 °C.

In the case of `O=C(O)Cc1ccc(O)c([N+](=O)[O-])c1`, the ΔTm is -0.8 °C in [1]; 1 °C in [2]; 0.5 °C in [3]; 0.1 °C in experiment [4]; -0.7 °C in experiment [5]; 0.5 °C in experiment [6]. In addition, the ΔTm in [7] is -0.6 °C; in [8], 1.1 °C; in experiment [9], 0.4 °C.

Regarding `COc1cc2ncnc(Nc3ccc(F)c(Cl)c3)c2cc1OCCCN1CCOCC1`, the ΔTm in [1] is 3.1 °C; in experiment [2], -0.2 °C; in [3], 0.3 °C; in experiment [4] it was 0.2 °C; in experiment [5] it was 0.1 °C; in experiment [6], -0.4 °C. Moreover, the ΔTm in [7] was -0.5 °C; in experiment [8] it was 5.3 °C; in experiment [9] it was 1.6 °C.

For the compound `COc1ccc(COc2ccc(Cc3cnc(N)nc3N)cc2OC)cc1`, the ΔTm in experiment [1] is 0.1 °C; in [2], -0.2 °C; in experiment [3], 0.5 °C; in experiment [4] it was 0 °C; in [5] it was -0.2 °C; in [6], -0.2 °C. Further, the results for the ΔTm in [7], in experiment [8] and in experiment [9] were -0.9 °C, -0.2 °C and 0.2 °C, respectively.

As to `OC[C@H]1O[C@@H](n2cnc3cc(Cl)c(Cl)cc32)[C@H](O)[C@@H]1O`, the ΔTm in experiment [1] is 0.2 °C; in [2], 0.6 °C; in experiment [3] it was 1 °C; in experiment [4] it was -0.3 °C; in [5] it was -0.4 °C; in [7], 0.1 °C. The figures for the ΔTm in experiment [8] and in experiment [9] were 0 °C and 0.2 °C, respectively.

With `Cc1cncc2cccc(S(=O)(=O)N3CCCNC[C@@H]3C)c12`, the ΔTm in [1] is 1.5 °C; in experiment [2], 0.6 °C; in experiment [3], 0.2 °C; in experiment [4], -0.3 °C; in [5], 1.8 °C; in experiment [6], 0 °C. For the same compound, the ΔTm in experiment [7] was -0.2 °C; in experiment [8], 5.5 °C; in [9] it was 3.3 °C.

In the case of `N#C/C(=C\c1ccc(O)c(O)c1)C(=O)Nc1ccccc1`, the ΔTm was 0.1 °C in [1]; 1.2 °C in [2]; 1.2 °C in experiment [3]; 0.3 °C in [4]; -0.2 °C in experiment [5]; 0.9 °C in experiment [6]. Further, the ΔTm is -0.3 °C in [7], 0.8 °C in experiment [8] and 0.4 °C in experiment [9].

For `Cn1cc(C2=C(c3cn(CCCN)c4ccccc34)C(=O)NC2=O)c2ccccc21`, the ΔTm is 5.9 °C in experiment [1]; 0.3 °C in experiment [2]; 0.4 °C in experiment [3]; 0.6 °C in experiment [4]; 0.3 °C in experiment [5]; -0.4 °C in experiment [6]. For the same compound, the ΔTm in experiment [7] is -0.1 °C; in experiment [8], 1.9 °C; in [9], 2.2 °C.

On to `Cc1ccc(NC(=O)c2ccc(CN3CCN(C)CC3)cc2)cc1Nc1nccc(-c2cccnc2)n1`, for which the ΔTm is -1.1 °C in [1]; 0.8 °C in [2]; 0.3 °C in [3]; 0.3 °C in experiment [4]; 0 °C in experiment [5]; 0.4 °C in experiment [6]. Besides, the values for the ΔTm in [7], in experiment [8] and in experiment [9] were -0.2 °C, -0.4 °C and 0.2 °C, respectively.

With `Nc1nccc(-c2c(-c3ccc(F)cc3)ncn2C2CCNCC2)n1`, the ΔTm in [1] is 0.1 °C; in experiment [2], 2 °C; in experiment [3], 2.4 °C; in experiment [4], 0.1 °C; in experiment [5], 0.3 °C; in experiment [6], -0.2 °C. Moreover, the ΔTm in experiment [7] was -0.2 °C; in experiment [8], -0.1 °C; in [9], 2.6 °C.

As to `O=c1cc(-c2ccc(O)cc2)oc2cc(O)cc(O)c12`, the shift in melting temperature (ΔTm) in experiment [1] amounted to 2.7 °C; in experiment [2], 0.7 °C; in experiment [3], 0.7 °C; in [4], 0.7 °C; in experiment [5], 1.1 °C; in experiment [6], 0.2 °C. The values for the ΔTm in experiment [7], in experiment [8] and in experiment [9] were -1.9 °C, 2.4 °C and 2.8 °C, respectively.

The record behind these values is ChEMBL document CHEMBL1145498, “A systematic interaction map of validated kinase inhibitors with Ser/Thr kinases” (Proc Natl Acad Sci U S A, 2007).
